The record followed here is patent publication US6017958A, “Method of treating malignant tumors with thyroxine analogues having no significant hormonal activity” (Octamer, Inc., priority 1997, dated 2000).

Assay [1] has as its system E-ras 20 cells (E-ras transformed bovine endothelial cells). In words: Tumorigenicity of pretreated E-ras 20 cells in athymic nude mice. In kind it is in vivo, bovine cells in nude mice. The settings on record: 10 μM, 4 days pretreatment; tumor size at day 25. As for the experimental part:
E-ras transformed bovine endothelial cells (Bauer et al., 1996, Intl. J. Oncology 8:239-252) were exposed to 10 μM DIME for […]. The DIME-treated cells (10^5 or 10^6 cells/100 μL) were injected subcutaneously into nude mice and tumor progression followed for 25 days.
Tumorigenicity of E-ras 20 Cells in athymic nude mice was assayed as described previously. Bauer et al., 1996, "Modification of growth related enzymatic pathways and apparent loss of tumorigenicity of a ras-transformed bovine endothelial cell line by treatment with 5-iodo-6-amino-1,2-benzopyrone (INH2 BP)" Intl. J. Oncol. 8:239-252. The in vivo antitumorigenic action of DIME was assayed on athymic mice inoculated with 10^6 MDA-MB-231 cells, as in the tumorgenicity assay. In about 10-14 days when subcutaneous tumors appeared, DIME treatment consisting of p.o. administration of DIME suspension (once a day) was commenced and continued for 28-32 days as reported, Kun et al., 1996, "Induction of tumor apotosis by methyl-3,5-diiodo-4-(4'-methoxyphenoxy) benzoate (DIME)", Abstract No. 102, Int. J. Oncol. 9:supplement 829.
The structural specificity of DIME and its homologs and analogs can be assessed by examining Table 7 and Table 8. We have prepared 17 novel structural analogs of DIME and compared the antitumor activity of 10 of the compounds (Table 8) which appears sufficient to draw some general conclusions. The biological assay chosen was the determination of antitumorigenic action of the drugs on the in vivo tumorigenicity of E-ras cells in nude mice, Bauer et al., 1996, "Modification of growth related enzymatic pathways and apparent loss of tumorigenicity of a ras-transformed bovine endothelial cell line by treatment with 5-iodo-6-amino-1,2-benzopyrone (INH2 BP)" Intl. J. Oncol. 8:239-252. E-ras 20 cells (10^5 or 10^6) were incubated with 10 μM DIME or analogs for 4 days, then 10^5 and 10^6 cells were inoculated subcutaneously into nude mice (5 per test) and rates of tumor formation quantitated by direct tumor volume measurements (cf. 2). […] Identical antitumorigenic tests were performed with nine DIME analogs and taking the effect of DIME as 100% (comparing tumor sizes at day 25) the antitumor efficacy was calculated as percent of DIME activity. […] Results summarized in Table 8 illustrate that substituents in R1 and R2 determine antitumor efficacy.
The efficacy of DIME analogs on in vivo tumorigenicity of Eras 20 cells i
athymic mice was compared to that of DIME (compound 1) which was taken as
100, determining the size of tumor reduction at day 25. Pretreatment with
DIME or its analogs (Table 7) was with 10 μM for 4 days prior to s.c.

The test system of assay [2] is seven human cancer cell lines. The assay can be described thus: Cytocidal action on human cancer cell lines. In kind it is cell-based. As for the experimental part:
Seven human cancer cell lines were obtained from the American Tissue Culture Collection (Rockville, Md.) and maintained in the recommended growth media. Cells were seeded into wells (2 cm^2) at a density of 2×10^4 cells/cm^2. Various concentrations of Compounds 1-13 were added to the media at the time of seeding.
The cultures were incubated for 72 hours at 37° C. (5% CO2 atmosphere). Following incubation, cells were detached with trypsin and counted in a hemocytometer.

The test system of assay [3] is microtubule protein (MTP). In words: Microtubule protein (MTP) polymerization optical test. It counts as biochemical, bovine or rabbit. The settings on record: for Percent inhibition of initial velocity of microtubule assembly: 10 μM, 1 mM GTP, 37° C. As for the experimental part:
Preparation of MTP and an optical test for polymerization was adopted from published methods, Gaskin, et al., 1974, "Turbidimetric studies of the in vitro assembly and disassembly of porcine neurotubules", J. Mol. Biol. 89:737-758; Tiwari, et al., 1993, "A pH and temperature-dependent cycling method that doubles the yield of microtubule protein", Anal. Biochem. 215:96-103. Bovine or rabbit brain was homogenized in an equal volume of ice cold buffer containing 100 mM Pipes/K^+ (pH 7.4), 4 mM EGTA, 1 mM MgCl2, 0.5 mM DTT and 0.1 mM PMSF, and centrifuged at 39,000 g for 1 hour at 4° C. To the supernatant, DMSO (8% final concentration) and GTP (1 mM final concentration) were added, followed by incubation at 37° C. for 30 minutes. Microtubules were pelleted at 100,000 g at 37° C for 30 minutes. The pellets were incubated on ice for 15 minutes, followed by resuspension in ice cold PEM buffer (100 mM Pipes/K+(pH 6.9), 1 mM EGTA, 1 mM MgCl2). This warm polymerization and cold depolymerization cycle was repeated once more and the cold, resuspended monomeric MTP (8-10 mg/ml protein) was used for the optical test for polymerization kinetics. Both rabbit or bovine brain yielded identical MTP preparations.
The composition of the optical test is described in the legends of Figures and Table 12. The polymerization reaction was started by the addition of 100 μl of MTP solution (equivalent to 0.8-1.0 mg protein) and initial linear rates of increase in absorbance at 350 nm followed and recorded at 37° C. (see FIG. 1) in a Perkin-Elmer 552 double beam spectrophotometer, equipped with a thermostatically controlled cuvette holder.
[…] Microtubule assembly at 37° C. was monitored at λ=350 nm and initial velocities were calculated as mA350 /min. […] The values are averages of duplicate assays.

The subject of assay [4] is protein phosphatase 2A. The assay can be described thus: Activation of purified protein phosphatase 2A (32P-histone H1 dephosphorylation). It counts as biochemical. The following applies: 50 μM. As to the method:
2.1 Preparation of ^32 P-labeled Histone H1 Substrate
Histone H1 was phosphorylated with protein kinase C (Upstate Biotechnology,Inc., Lake Placid, N.Y.) in a volume of 100 μL according to standard protocols. Alternatively, histone H1 was phosphorylated with p34cdc2 kinase purified from rapidly multiplying Mytilus Edulis embryos at 4-8 stage after isolation with the p^13 -Suc agarose technique (Smythe and Newport, 1992, "Coupling of Mitosis to the Completion of S Phase in Xenopus Occurs via Modulation of the Tyrosine Kinase that Phosphorylates p34cdc2," Cell 68:787-797).
125 ng purified protein phosphatase 2A (Upstate Biotechnology, Inc., Lake Placid, N.Y.; Usui et al., 1983, J. Biol. Chem. 258:10455-10463) was preincubated with thyroxine analogue (50 μM) in buffer (20 mM MOPS or Tris, pH 7.5, 1 mM MgCl2, 60 μM β-mercaptoethanol) for 10 min. at 23° C. Total reaction volume was 20 μL. ^32 P-labeled histone H1 substrate (10 μg, 10^5 cpm) was added and the dephosphorylation reaction allowed to proceed for 5 min. at 23° C., after which time the reaction was quenched by addition of 2 μL Laeimli buffer. An identical reaction containing 125 ng untreated protein phosphatase 2A was run as a control.
Phosphorylated and dephosphorylated histone H1 were separated by gel electrophoresis (12% SDS-PAGE), bands containing phosphorylated histone H1 excised and assayed for ^32 P activity via scintillation counter.
The velocity of dephosphorylation in 5 min. is an indication of the initial velocity (Vinit) of the dephosphorylation reaction.

For assay [5], the system named is MDA-MD-231 cells. The assay can be described thus: Inhibition of tumor cell growth. In kind it is cell-based, human. The following applies: 3 days; for Cells (growth): control 0.95. As to the method:
MDA-MD-231 human cancer cells were obtained from the American Tissue Culture Collection (Rockville, Md.) and maintained in the recommended growth media. Cells were grown in the presence of various concentrations of Compounds 1 and 14 for 3 days at 37° C.

The subject of assay [6] is MDA-MB-231 cells. The assay can be described thus: Immunocytochemistry of mitotic spindle and spindle-associated proteins. It counts as cell-based, human. The settings on record: 100 nM, 18 hrs; data not shown. As to the method:
Cells were fixed in methanol at -20° C. for 5 min. The primary antibody was mouse monoclonal anti-beta tubulin (Amersham) and secondary antibody from goat, conjugated to fluorescein isothiocyanate from Cappel (Durham, N.C., USA). The DNA of nuclei was stained by 10 min of incubation in 0.05 μg/ml 4'-6-diamidono-2-phenylindole (DAPI). Stained cells were viewed with either a Zeiss 40xPlan-Neofluar or a Nikon 60xPlanApo objective. For classification of cells in the mitotic phase, prophase and metaphase were combined into a single category, because it was difficult to distinguish late prophase from metaphase.
In preliminary studies (data not shown) we have also studied the behavior of certain spindle-associated proteins by the immunocytologic technique.

For the compound `CCOc1ccc(Oc2c(I)cc(C(=O)OC)cc2I)cc1` [Compound 2, Methyl 3,5-diiodo-4-(4'-ethoxyphenoxy)benzoate], the “Efficacy (inhibition of E-ras 20 tumorigenicity, DIME = 100)” value in assay [1] came out at 93%. Besides, the Emax in assay [2] (72 hours, human cancer cells, read-out: maximal cytocidal activity as compared to DIME) lay within 25 to 30%. Besides, in assay [3], the “Percent inhibition of initial velocity of microtubule assembly” value (from here on “Percent inhibition”) was found to be 76%.
With `CCCOc1ccc(Oc2c(I)cc(C(=O)OC)cc2I)cc1` [Compound 3, Methyl 3,5-diiodo-4-(4'-n-propoxyphenoxy)benzoate], the “Efficacy (inhibition of E-ras 20 tumorigenicity, DIME = 100)” value in assay [1] is given as 44%. Besides, the “activity in cellular assays and in vivo” value in assay [2] is “completely inactive”. Also, the “activation of protein phosphatase 2A” value in assay [4] is “did not activate”. Moreover, the “Activity/5 min (initial velocity of histone H1 dephosphorylation)” value in assay [4] (10 min preincubation, control 10217 ± 1708, average of three samples) worked out at 7521 ± 1562 cpm.
`CCCCOc1ccc(Oc2c(I)cc(C(=O)OC)cc2I)cc1` [Compound 4, Methyl 3,5-diiodo-4-(4'-n-butoxyphenoxy)benzoate]: the “Efficacy (inhibition of E-ras 20 tumorigenicity, DIME = 100)” value in assay [1] worked out at 4%. In addition, the “Percent inhibition” value in assay [3] stood at 8%.
Take `CCOC(=O)c1cc(I)c(Oc2ccc(OC)cc2)c(I)c1` [Compound 5, Ethyl 3,5-diiodo-4-(4'-methoxyphenoxy)benzoate]: in assay [1], the “Efficacy (inhibition of E-ras 20 tumorigenicity, DIME = 100)” value stood at 83%. The “activity in cellular assays and in vivo” value in assay [2] is “completely inactive”. Moreover, in assay [3], the “Percent inhibition” value worked out at 35%.
Consider `COc1ccc(Oc2c(I)cc(C(=O)O)cc2I)cc1` [Compound 6, 3,5-diiodo-4-(4'-methoxyphenoxy)benzoic acid], for which the “Efficacy (inhibition of E-ras 20 tumorigenicity, DIME = 100)” value in assay [1] was determined as 45%. In assay [3], the “Percent inhibition” value is given as 0%. In addition, in assay [3] (methyl ester replaced), the “inhibitory effect on MTP polymerization” value is listed as “completely abolishes the inhibitory effect on MTP polymerization”.
As for `COc1ccc(Oc2c(I)cc(C(N)=O)cc2I)cc1` [Compound 7, 3,5-diiodo-4-(4'-methoxyphenoxy)benzamide], the “Efficacy (inhibition of E-ras 20 tumorigenicity, DIME = 100)” value in assay [1] is recorded as 53%. The “Percent inhibition” value in assay [3] was 43%.
Turning to `CNC(=O)c1cc(I)c(Oc2ccc(OC)cc2)c(I)c1` [Compound 8, 3,5-diiodo-4-(4'-methoxyphenoxy)-N-methyl benzamide], the “Efficacy (inhibition of E-ras 20 tumorigenicity, DIME = 100)” value in assay [1] amounted to 22%.
Turning to `COc1ccc(Oc2c(I)cc(C(=O)N(C)C)cc2I)cc1` [Compound 9, 3,5-diiodo-4-(4'-methoxyphenoxy)-N,N-dimethyl benzamide], the “Efficacy (inhibition of E-ras 20 tumorigenicity, DIME = 100)” value in assay [1] stood at 64%. The “Percent inhibition” value in assay [3] turned out to be 6%.
With `COC(=O)c1cc(I)c(Oc2ccc(O)cc2)c(I)c1` [Compound 10, Methyl 3,5-diiodo-4-(4'-hydroxyphenoxy) benzoate], the “Efficacy (inhibition of E-ras 20 tumorigenicity, DIME = 100)” value in assay [1] is 14%.
In the case of `COC(=O)c1cc(I)c(Oc2ccc(OC)cc2Cl)c(I)c1` [Compound 14, Methyl 3,5-diiodo-4-(2'-chloro-4'-methoxyphenoxy)benzoate], the “Cells (growth)” value is reported as 0.95 ×10^6 in assay [5] (0.5 μM), 0.71 ×10^6 in assay [5] (1.0 μM) and 0.20 ×10^6 in assay [5] (2.0 μM). Moreover, the “inhibitory activity as compared to DIME” value in assay [5] is “about 25%”.
In the case of `COC(=O)c1cc(I)c(Oc2ccc(OC(F)(F)F)cc2)c(I)c1` [Compound 18], the “Percent inhibition” value in assay [3] amounted to 7%.
For the compound `C=C1[C@@H](O)[C@@H]2O[C@]3(CC[C@H](/C=C/[C@@H](C)[C@@H]4CC(C)=C[C@@]5(O[C@H](C[C@@](C)(O)C(=O)O)CC[C@H]5O)O4)O3)CC[C@H]2O[C@@H]1[C@@H](O)C[C@H](C)[C@H]1O[C@@]2(CCCCO2)CC[C@H]1C` [okadaic acid, reference compound], the “cdc-2 kinase- and pp2a-spindle association” value in assay [6] is “abolished only cdc-2 kinase- and pp2a-spindle association”.
